According to PMC2873968, “Novel protein kinase D inhibitors cause potent arrest in prostate cancer cell growth and motility” (BMC Chemical Biology, 2010):

Assays:
recombinant human PKD3 = biological target: T1, recombinant human PKD3 (Homo sapiens, UniProt O94806); test: In vitro radiometric PKD kinase assay; format: biochemical; settings: for IC50: radiometric kinase assay, mean ± S.E.M.
T1 construct: purchased Enzo Life Sciences
T1 sequence (O94806 1-890): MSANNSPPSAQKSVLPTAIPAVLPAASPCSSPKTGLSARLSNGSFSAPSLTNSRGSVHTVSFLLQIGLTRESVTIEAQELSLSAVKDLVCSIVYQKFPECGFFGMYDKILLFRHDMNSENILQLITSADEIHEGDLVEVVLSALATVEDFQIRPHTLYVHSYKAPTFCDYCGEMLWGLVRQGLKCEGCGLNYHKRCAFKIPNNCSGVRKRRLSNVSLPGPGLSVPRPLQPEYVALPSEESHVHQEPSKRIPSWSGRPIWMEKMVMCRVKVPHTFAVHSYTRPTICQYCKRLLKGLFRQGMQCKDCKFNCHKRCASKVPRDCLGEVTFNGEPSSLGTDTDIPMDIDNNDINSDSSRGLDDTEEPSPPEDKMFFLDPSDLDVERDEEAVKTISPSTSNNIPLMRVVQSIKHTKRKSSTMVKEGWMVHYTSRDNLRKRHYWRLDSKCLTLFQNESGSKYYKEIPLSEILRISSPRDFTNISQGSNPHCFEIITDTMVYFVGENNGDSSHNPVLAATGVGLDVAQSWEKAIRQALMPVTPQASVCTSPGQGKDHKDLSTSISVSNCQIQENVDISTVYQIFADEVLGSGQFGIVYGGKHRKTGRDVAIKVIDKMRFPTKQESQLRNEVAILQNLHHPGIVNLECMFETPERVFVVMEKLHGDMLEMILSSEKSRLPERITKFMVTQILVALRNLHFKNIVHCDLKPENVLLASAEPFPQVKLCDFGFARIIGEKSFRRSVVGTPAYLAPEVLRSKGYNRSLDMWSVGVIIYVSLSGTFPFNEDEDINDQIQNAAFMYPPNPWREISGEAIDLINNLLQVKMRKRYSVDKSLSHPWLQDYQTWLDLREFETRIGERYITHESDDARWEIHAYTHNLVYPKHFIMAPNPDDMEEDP
Protocol: In vitro radiometric kinase assays were conducted as previously described. Briefly, 1 μCi [γ-^32P] ATP (PerkinElmer Life Sciences), 70 μM ATP, 50 ng purified recombinant human PKD1 (Biomol International, Plymouth Meeting, PA), PKD2 (SignalChem, Richmond, BC, Canada), or CAMKIIα (Enzo Life Sciences) or 75 ng PKD3 (Enzo Life Sciences), and 2.5 μg syntide-2 (Sigma) in 50 μl kinase buffer containing 50 mM Tris-HCl, pH 7.5, 4 mM MgCl2, and 10 mM β-mercaptoethanol. For the CAMK assay, 0.5 mM CaCl2 and 30 ng/μl calmodulin were pre-incubated for 10 min on ice, and then added to each reaction mixture. The reaction was incubated at 30°C for 10 min, and 25 μl of the reaction mixture was then spotted onto Whatman P81 filter paper (Whatman Inc., Clifton, NJ). The filter papers were washed 3 times in 0.5% phosphoric acid, air-dried, and counted using a Beckman LS6500 multipurpose scintillation counter (Beckman).
The in vitro inhibitory activities of the novel compounds toward PKD were determined using radiometric PKD kinase activity assays. Recombinant human PKD1, -2, or -3 was incubated with the substrate, syntide-2, in the presence of 10 different concentrations of each compound. IC50 values were determined for each compound by plotting percent PKD activity versus compound concentration for each point.

DU145 cells = test: Wound healing assay; format: cell-based; settings: 25 μM, 24 h
Protocol: (§1) Wound-induced migration was measured as described previously. Briefly, PC3 or DU145 cells were grown to confluence in 6-well plates. Migration was initiated by scraping the monolayer with a pipette tip, creating a "wound." The indicated concentration of compound was added to the media, and the wound was imaged immediately under an inverted phase-contrast microscope with 10× objective. After 24 h, cells were fixed in methanol and stained with 1% crystal violet, and a final image was taken. The wound gap was measured, and % wound healing was calculated. The average % wound healing was determined based on at least 9 measurements of the wound gap.
(§2) The analogs inhibited wound healing in prostate cancer cells. DU145 cells (A) or PC3 cells (B) were grown to confluence in 6-well plates. The monolayer was wounded and imaged immediately. Cells were then treated with either vehicle (DMSO) or analogs at indicated concentration for 24 hours. Cells were then fixed and stained with 0.5% crystal violet. Percentage wound closure was calculated as an average of 9 determinations for each concentration/compound as described under "Methods." Data shown are the mean ± S.E.M. for three independent experiments. Statistical significance versus the DMSO control was determined by unpaired t-test in GraphPad Prism V. ns, not statistically significant; *, p < 0.05; **, p < 0.01; ***, p < 0.001.

PC3 cells = test: Wound healing assay; format: cell-based; settings: 25 μM, 24 h
Protocol: as §1, §2

| SMILES | fold stronger inhibition of PKD3 than CID755673 (recombinant human PKD3) | IC50 (recombinant human PKD3) [nM] | wound closure (DU145 cells) | wound closure (PC3 cells) | fold greater inhibition of PKD3 than PKD1 or -2 (recombinant human PKD3) | change of potency for PKD3 (recombinant human PKD3; versus kb-NB142-70) |
| --- | --- | --- | --- | --- | --- | --- |
| O=C1NCCSc2c1sc1ccc(O)cc21 [kb-NB142-70] | about 4 fold | 53.2 ± 3.5 | 25-35% | 25-35% | – | – |
| O=C1NCCSc2c1sc1ccc(O)c(I)c21 [kb-NB165-31] | – | 91.1 ± 17.2 | 55-60% | 55-60% | – | – |
| COc1ccc2sc3c(c2c1)SCCNC3=O [kb-NB165-09] | – | 98.5 ± 15.3 | 25-35% | 25-35% | – | – |
| O=C1NCCCSc2c1sc1ccc(O)cc21 [kb-NB165-92] | – | 58.8 ± 7.3 | – | – | about 2 fold | not altering potency |
| COc1ccc2sc3c(c2c1)SCCCNC3=O [kb-NB184-02] | – | 325 ± 39 | – | – | – | – |
